Source: publication PMC10580383, “Development of Melanocortin 4 Receptor Agonists by Exploiting Animal-Derived Macrocyclic, Disulfide-Rich Peptide Scaffolds” (ACS Pharmacology & Translational Science, 2023)
Where two headings read alike, the source gives them in different places. Where a SMILES comes first, the peptide text is derived from it. Bridges are numbered along the chain shown (N, C = ends). Where no end group is shown, it is not given here. [ ]: non-standard residue; d: D form. pGlu = O=C1CC[C@@H](C(=O)O)N1

Experiments:
mouse MC4R-EGFP = test: kinetic BRET β-arrestin-2 recruitment assay (MC4R-EGFP / β-arrestin-2-nanoluciferase); format: cell-based; conditions: ligand 10 μM; HEK293 cells, MC4R-EGFP and β-arrestin-2-NLuc; mean ligand-induced BRET from 312 to 2433 s, NDP-α-MSH set as 100; three independent experiments
Description: Considering the physiological relevance of β-arrestins and their critical role in orchestrating MC4R signaling, we measured β-arrestin-2 recruitment in a kinetic bioluminescence resonance energy transfer (BRET) assay. We screened at a ligand concentration of 10 μM in HEK293 cells transiently expressing MC4R coupled to EGFP, and β-arrestin-2 fused to nanoluciferase. […] By contrast, Pr4LP1, Ar3LP1, Ar3LP2, and GoLP1 recruited β-arrestin-2 with greater efficiencies (>130%) than NDP-α-MSH (Figures 4 and S5B,C).
Figure 4 β-Arrestin-2 recruitment of designed MC4R peptide analogues. BRET assay was used to measure the transient interaction of MC4R-EGFP with β-arrestin-2-nanoluciferase (NLuc) in HEK293 cells over time following cell treatment with 10 μM of tachyplesin-1-like peptides (Ta1LPs, green), protegrin-4-like peptides (Pr4LPs, pink), arenicin-3-like peptides (Ar3LPs, orange), and gomesin-like peptides (GoLPs, blue). Relative BRET quantification was determined by calculating the mean value of ligand-induced BRET for each peptide ligand from 312 to 2433 s which was then divided by the mean value of ligand-induced BRET of NDP-α-MSH set as 100. Data are shown as mean ± SEM from three independent experiments.
BRET assay was performed as previously described.[32] Briefly, β-arrestin-2-nano luciferase and mouse MC4R-EGFP were cotransfected in a 1:10 ratio. 16 h post-transfection, 50,000 cells in 100 μL of phenol red-free DMEM with 10% FBS per well were transferred into white clear bottom 96-well plates and incubated overnight. On the day of the assay, cells were incubated for 1 h at 37 °C in phenol red- and serum-free DMEM. Furimazine (diluted 1:50) and peptide ligands (4×) were prepared in Hank’s balanced salt solution (HBSS), respectively. Prior to establishing the baseline and measuring kinetic BRET, furimazine was incubated for 5 min at 37 °C. The ability of peptide ligands to induce β-arrestin-2 recruitment was assessed by measuring light emissions for EGFP (510 nm) and nanoluciferase (460 nm) over 35 min using Flexstation 3 (Molecular Devices, San Jose, USA). The BRET ratio was calculated as emission EGFP (510 nm)/emission nanoluciferase (460 nm). The ligand-induced BRET was calculated by subtracting […].

[1] = target: T1, mouse melanocortin 4 receptor (MC4R) (Mus musculus, UniProt P56450); test: cAMP second messenger quantification assay (Cisbio HTRF cAMP Gs kit); format: cell-based
T1 construct: expressed in transfected cells; host or cells: HEK293 / HEK293T, transient transfection
Description: Figure 3 Functional cAMP assay of synthesized peptide analogues targeting MC4R. The accumulation of adenylyl cyclase-catalyzed cAMP of (A) tachylplesin-1-like peptides (Ta1LPs, green), (B) protegrin-4-like peptides ([…], pink), (C) arenicin-3-like peptides (Ar3LPs, orange), and (D) gomesin-like peptides (GoLPs, blue) was measured in HEK293 cells transiently expressing mouse melanocortin 4 receptor (MC4R). […] Data are from three independent experiments and are shown as mean ± SEM.
Assays were performed on cells transiently expressing mouse MC4R-EGFP. BamHI and SacI restriction sites were used to clone mouse MC4R N-terminally into a pEGFP-N1 vector. Peptide ligands were assayed for […] in a 384-well format and triplicate according to the Cisbio protocol. Briefly, 5 μL containing 10,000 cells per well was incubated with 5 μL of peptide solutions prepared 2× in 1× stimulation buffer. Following an incubation of peptide ligands at 37 °C for 30 min, d2-labeled cAMP and cryptate-labeled antibody (5 μL of each) were added to the mixture and further incubated for at least 1 h at room temperature. Subsequently, cAMP levels were quantified on a Flexstation 3 (Molecular Devices, San Jose, USA) using homogeneous time-resolved fluorescence resonance energy transfer and the ratio 665/620 nm. Samples were measured in technical triplicates.
Data analysis was performed with GraphPad Prism (GraphPad Software, San Diego). The potency (EC50) and maximum efficacy (Emax) values of peptide ligands were derived from functional data fitted to three- or four-parameter nonlinear regression curves constrained to a bottom of zero.

[2] = target: human melanocortin 4 receptor with LgBit fused at the C-terminus (human) (UniProt P32245)
[3] = target: mouse melanocortin 4 receptor fused to EGFP (mouse) (UniProt P56450)
[4] = target: mouse melanocortin 4 receptor fused to EGFP (mouse) (UniProt P56450); remark: listed apart in the source
[5] = HEK293, read-out: efficacy cAMP Emax ± SD

T1 sequence (P56450 whole entry): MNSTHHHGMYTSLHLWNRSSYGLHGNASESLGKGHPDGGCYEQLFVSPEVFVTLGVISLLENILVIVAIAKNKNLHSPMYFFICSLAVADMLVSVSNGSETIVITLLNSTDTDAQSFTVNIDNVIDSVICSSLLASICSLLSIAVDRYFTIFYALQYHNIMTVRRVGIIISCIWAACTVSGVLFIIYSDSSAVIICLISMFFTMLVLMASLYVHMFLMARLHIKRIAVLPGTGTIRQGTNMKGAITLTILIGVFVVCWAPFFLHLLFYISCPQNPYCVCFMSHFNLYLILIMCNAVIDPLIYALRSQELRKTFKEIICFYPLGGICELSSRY
mouse melanocortin 4 receptor fused to EGFP (mouse), sequence (P56450 whole entry, the tested form may be a part): as the sequence (P56450 whole entry) above
human melanocortin 4 receptor with LgBit fused at the C-terminus (human), sequence (P32245 whole entry, the tested form may be a part): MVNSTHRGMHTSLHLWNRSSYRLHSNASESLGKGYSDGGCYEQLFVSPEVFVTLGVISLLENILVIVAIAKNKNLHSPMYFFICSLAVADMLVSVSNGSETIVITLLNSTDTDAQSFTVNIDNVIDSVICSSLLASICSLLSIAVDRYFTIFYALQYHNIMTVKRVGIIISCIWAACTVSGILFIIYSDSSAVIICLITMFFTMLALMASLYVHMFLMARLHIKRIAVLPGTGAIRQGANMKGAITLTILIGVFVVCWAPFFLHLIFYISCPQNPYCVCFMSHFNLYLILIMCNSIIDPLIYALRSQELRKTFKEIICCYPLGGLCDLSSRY

cAMP accumulation (Cisbio HTRF) in HEK293 cells transiently expressing mouse MC4R-EGFP: EC50 [4] [nM] | cAMP accumulation (Cisbio HTRF) in HEK293 cells transiently expressing mouse MC4R-EGFP: Emax (normalised to NDP-α-MSH) [4] [%] | Molecule | BRET efficacy of β-arrestin-2 recruitment relative to NDP-α-MSH (mouse MC4R-EGFP) | EC50 [1] [nM] | Emax [1, 5] [%] | also measured
 |  | CC(C)[C@@H]1NC(=O)[C@H](Cc2c[nH]c3ccccc23)NC(=O)[C@H](Cc2c[nH]cn2)NC(=O)[C@@H](Cc2ccccc2)NC(=O)[C@H](Cc2c[nH]cn2)NC(=O)[C@@H]2CCCN2C(=O)[C@H](Cc2ccc(O)cc2)NC(=O)[C@H](C(C)C)NC(=O)[C@@H]2CSSC[C@H](NC1=O)C(=O)N[C@@H](Cc1ccc(O)cc1)C(=O)N[C@@H](CCCNC(=N)N)C(=O)N[C@@H](CCCNC(=N)N)C(=O)N[C@H](C(=O)N[C@@H](CC(N)=O)C(N)=O)CSSC[C@H](NC(=O)[C@H](Cc1ccccc1)NC(=O)CN)C(=O)N[C@@H](Cc1c[nH]c3ccccc13)C(=O)N[C@@H](Cc1ccc(O)cc1)C(=O)N[C@@H](C(C)C)C(=O)N2 [Ar3LP2] (H-GFCWYVCVYPH[dF]HWVCYRRCN-NH2; disulfide 3-20, 7-16) | > 130% | 20 |  | Emax ([1]; HEK293; read-out: efficacy cAMP Emax ± SD): 95 ± 10%
 |  | CC(C)[C@@H]1NC(=O)[C@H](CCCNC(=N)N)NC(=O)[C@H](Cc2c[nH]c3ccccc23)NC(=O)[C@H](Cc2c[nH]cn2)NC(=O)[C@@H](Cc2ccccc2)NC(=O)[C@H](Cc2c[nH]cn2)NC(=O)[C@H](Cc2ccc(O)cc2)NC(=O)[C@H](C(C)C)NC(=O)[C@@H]2CSSC[C@H](NC1=O)C(=O)N[C@@H](Cc1ccc(O)cc1)C(=O)N[C@@H](CCCNC(=N)N)C(=O)N[C@@H](CCCNC(=N)N)C(=O)N[C@H](C(=O)N[C@@H](CC(N)=O)C(N)=O)CSSC[C@H](NC(=O)[C@H](Cc1ccccc1)NC(=O)CN)C(=O)N[C@@H](Cc1c[nH]c3ccccc13)C(=O)N[C@@H](Cc1ccc(O)cc1)C(=O)N[C@@H](C(C)C)C(=O)N2 [Ar3LP4] (H-GFCWYVCVYH[dF]HWRVCYRRCN-NH2; disulfide 3-20, 7-16) | less than 60% | 794 | 106 ± 14 | 
 |  | CC(C)[C@@H]1NC(=O)[C@H](CCCNC(=N)N)NC(=O)[C@H](Cc2c[nH]c3ccccc23)NC(=O)[C@H](CCCNC(=N)N)NC(=O)[C@@H](Cc2ccccc2)NC(=O)[C@H](Cc2c[nH]cn2)NC(=O)[C@H](Cc2ccc(O)cc2)NC(=O)[C@H](C(C)C)NC(=O)[C@@H]2CSSC[C@H](NC1=O)C(=O)N[C@@H](Cc1ccc(O)cc1)C(=O)N[C@@H](CCCNC(=N)N)C(=O)N[C@@H](CCCNC(=N)N)C(=O)N[C@H](C(=O)N[C@@H](CC(N)=O)C(N)=O)CSSC[C@H](NC(=O)[C@H](Cc1ccccc1)NC(=O)CN)C(=O)N[C@@H](Cc1c[nH]c3ccccc13)C(=O)N[C@@H](Cc1ccc(O)cc1)C(=O)N[C@@H](C(C)C)C(=O)N2 [Ar3LP5] (H-GFCWYVCVYH[dF]RWRVCYRRCN-NH2; disulfide 3-20, 7-16) | less than 60% | 251 | 99 ± 8 | 
 |  | CC(C)C[C@@H]1NC(=O)[C@H](CCCNC(=N)N)NC(=O)[C@H](CCCNC(=N)N)NC(=O)[C@@H](NC(=O)[C@@H]2CCC(=O)N2)CSSC[C@@H](C(=O)N[C@@H](CCCNC(=N)N)C(=O)NCC(=O)N[C@@H](CCCNC(=N)N)C(N)=O)NC(=O)[C@H](Cc2ccc(O)cc2)NC(=O)[C@H]([C@@H](C)O)NC(=O)[C@H](C(C)C)NC(=O)[C@@H]2CSSC[C@H](NC1=O)C(=O)N1CCC[C@H]1C(=O)N[C@@H](Cc1c[nH]cn1)C(=O)N[C@H](Cc1ccccc1)C(=O)N[C@@H](Cc1c[nH]cn1)C(=O)N[C@@H](Cc1c[nH]c3ccccc13)C(=O)N2 [GoLP1] ([pGlu]CRRLCPH[dF]HWCVTYCRGR-NH2; disulfide 2-16, 6-12) | > 130% | 26 | 99 ± 3 | 
 |  | CC(C)C[C@@H]1NC(=O)[C@H](CCCNC(=N)N)NC(=O)[C@H](CCCNC(=N)N)NC(=O)[C@@H](NC(=O)[C@@H]2CCC(=O)N2)CSSC[C@@H](C(=O)N[C@@H](CCCNC(=N)N)C(=O)NCC(=O)N[C@@H](CCCNC(=N)N)C(N)=O)NC(=O)[C@H](Cc2ccc(O)cc2)NC(=O)[C@H]([C@@H](C)O)NC(=O)[C@H](C(C)C)NC(=O)[C@@H]2CSSC[C@H](NC1=O)C(=O)N[C@@H](Cc1c[nH]cn1)C(=O)N[C@H](Cc1ccccc1)C(=O)N[C@@H](Cc1c[nH]cn1)C(=O)N[C@@H](Cc1c[nH]c3ccccc13)C(=O)N2 [GoLP2] ([pGlu]CRRLCH[dF]HWCVTYCRGR-NH2; disulfide 2-15, 6-11) | less than 60% | 158 | 116 ± 11 | 
 |  | α-MSH (peptide) |  |  |  | coupling of Gαs-SmBit to MC4R-LgBit (nanoluciferase complementation, live cells): EC50 [2]: 1 nM
18 | 95 | GFCWYVCVYPH[dF]HWVCYRRCN-NH2 (disulfide 7-16, 3-20; N-terminus assumed; SMILES CC(C)[C@@H]1NC(=O)[C@H](Cc2c[nH]c3ccccc23)NC(=O)[C@H](Cc2c[nH]cn2)NC(=O)[C@@H](Cc2ccccc2)NC(=O)[C@H](Cc2c[nH]cn2)NC(=O)[C@@H]2CCCN2C(=O)[C@H](Cc2ccc(O)cc2)NC(=O)[C@H](C(C)C)NC(=O)[C@@H]2CSSC[C@H](NC1=O)C(=O)N[C@@H](Cc1ccc(O)cc1)C(=O)N[C@@H](CCCNC(=N)N)C(=O)N[C@@H](CCCNC(=N)N)C(=O)N[C@H](C(=O)N[C@@H](CC(N)=O)C(N)=O)CSSC[C@H](NC(=O)[C@H](Cc1ccccc1)NC(=O)CN)C(=O)N[C@@H](Cc1c[nH]c3ccccc13)C(=O)N[C@@H](Cc1ccc(O)cc1)C(=O)N[C@@H](C(C)C)C(=O)N2) [arenicin-3-like peptide 2] |  |  |  | recruitment of β-arrestin-2-nanoluciferase to MC4R-EGFP (kinetic BRET, HEK293 cells), 10 μM peptide: BRET efficiency relative to NDP-α-MSH (100) [3]: > 130%
260 | 99 | GFCWYVCVYH[dF]RWRVCYRRCN-NH2 (disulfide 7-16, 3-20) [arenicin-3-like peptide 5] |  |  |  | recruitment of β-arrestin-2-nanoluciferase to MC4R-EGFP (kinetic BRET, HEK293 cells), 10 μM peptide: BRET efficacy relative to NDP-α-MSH (100) [3]: < 60%
820 | 106 | GFCWYVCVYH[dF]HWRVCYRRCN-NH2 (disulfide 7-16, 3-20) [arenicin-3-like peptide 4] |  |  |  | recruitment of β-arrestin-2-nanoluciferase to MC4R-EGFP (kinetic BRET, HEK293 cells), 10 μM peptide: BRET efficacy relative to NDP-α-MSH (100) [3]: < 60%
